Experiment [1] concerns the target T1, mutEGFR (D770_N771insNPG, T790) (Homo sapiens, UniProt P00533, INS770NPG/T790M).
T1 construct: exact insNPG construct not described; in-house EGFR proteins were N-terminal GST fusions from baculovirus/insect cells (borders R669-A1210 given only for WT, insSVD, insASV)
The experiment is described as follows: mutEGFR (D770_N771insNPG, T790) kinase assay. In kind it is biochemical. The note with it: Table 2a, D770_N771insNPG. The text has this:
The different EGFR proteins used in the biochemical kinase activity inhibition assays were generated inhouse by expression in insect cells using Baculo Virus system and subsequent purification as described in the following paragraphs.
The cDNAs encoding the various protein sequences from human EGFR human (P00533) were optimized for expression in eukaryotic cells and synthesized by the GeneArt Technology at Life Technologies.

Experiment [2] deals with BA/F3 (insSVD) cells. As to the kind of experiment: Ba/F3-EGFR-insSVD cell survival assay (Cell Titer-Glo). It counts as cell-based. To be noted: Table 3a, cell survival, Cell Titer-Glo, with 10 ng/ml EGF, without IL-3. The protocol: Cellular Data Description (WT, insSVD, insSVD T790M) 293T cells from ATCC were transfected with pBABEpuro expression constructs for WT EGFR or EGFR-insSVD, or EGFR-insSVD T790M, and pCL-Eco packaging vector using Fugene-6 transfection reagent from Promega. Plates were incubated at 37° C. for 48 h. Retrovirus was harvested by filtering the media supernatant through a 0.45 μm filter.
Ba/F3 cells purchased from DSMZ were grown in RPMI+10% FBS+10 ng/ml IL-3 and infected with filtered retroviral supernatant at a 1:2 dilution. Polybrene was added to a concentration of 8 μg/mL, plates were spun for 90 min, and incubated for 16 h at 37° C. 2 μg/mL puromycin was added to the infected cells 24 h after infection and cells were continually grown in the presence of puromycin and 10 ng/ml IL-3. Following stably expressing Ba/F3 cell lines were generated: Ba/F3-EGFR-WT, Ba/F3-EGFR-insSVD, Ba/F3-EGFR-insSVD T790M, (Ba/F3-vector-control).
For cell survival assays, Ba/F3 cells were grown to a density of 1-2 million cells per mL, spun down and resuspended in media without IL-3, and replated at a concentration of 200,000-500,000 cells per mL. The cells ectopically expressing WT EGFR, EGFR-insSVD, or EGFR-insSVD T790M were plated with 10 ng/ml Millipore Culture grade EGF. The cells ectopically expressing pBABEpuro empty vector were plated with 10 ng/mL IL-3.
2 days later, cells were plated in 50 µL in a 384 well plate at a concentration of 4000 cells per well for cells assayed in the absence of IL-3 and 2000 cells per well for cells assayed in the presence of IL-3. 100 nL of compound was added to each well using a 100 nL pin head, and plates were incubated at 37° C. for 48 h.
Cell viability was measured by adding 20 μL of Cell Titer-Glo Luminescent Cell Viability Reagent diluted 1:3 in PBS. Plates were sealed with Perkin Elmer Top-Seal, inverted several times to mix, and immediately centrifuged at 1000 rpm for 2 min. Plates were incubated in low light conditions for 8-10 min and luminescence was measured.
Background: Cellular ATP, detected with luciferase, serves as a proxy for viable cell number.

In experiment [3] the target is T2, mutEGFR (D770_N771insSVD) (Homo sapiens, UniProt P00533, DUP768-770).
T2 construct: GST-EGFR #3 (SVD between D770 and N771); made in house; host or cells: Sf9 insect cells (baculovirus)
T2 sequence (P00533 with tags, fused parts or gaps DUP768-770): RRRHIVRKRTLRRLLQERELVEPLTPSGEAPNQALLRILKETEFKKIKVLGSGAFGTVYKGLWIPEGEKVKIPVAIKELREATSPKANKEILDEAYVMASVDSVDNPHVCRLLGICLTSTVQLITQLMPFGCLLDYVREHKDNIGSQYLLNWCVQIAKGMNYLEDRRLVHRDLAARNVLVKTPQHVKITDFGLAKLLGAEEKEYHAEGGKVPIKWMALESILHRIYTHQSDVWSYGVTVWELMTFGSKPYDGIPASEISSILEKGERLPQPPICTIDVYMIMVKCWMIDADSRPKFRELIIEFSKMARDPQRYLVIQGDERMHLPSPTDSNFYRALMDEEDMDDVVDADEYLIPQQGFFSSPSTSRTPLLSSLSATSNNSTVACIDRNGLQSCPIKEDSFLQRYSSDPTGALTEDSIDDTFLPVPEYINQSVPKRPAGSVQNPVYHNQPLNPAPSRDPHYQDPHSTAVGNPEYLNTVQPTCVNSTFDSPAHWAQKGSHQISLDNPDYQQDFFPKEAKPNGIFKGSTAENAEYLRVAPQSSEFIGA
As to the kind of experiment: Exon20-Mutant-EGFR (D770_N771insSVD) kinase assay (TR-FRET). It counts as biochemical. To be noted: mutEGFR (D770_N771insSVD) kinase assay IC50, Table 2a; D770_N771insSVD; 2 mM ATP.

This note sets out measurements from US20260365653A1, “IRREVERSIBLE MUTEGFR INHIBITORS” (Bayer Aktiengesellschaft, priority 2022, published 2026).

T1 sequence (P00533 with tags, fused parts or gaps INS770NPG/T790M limits assumed): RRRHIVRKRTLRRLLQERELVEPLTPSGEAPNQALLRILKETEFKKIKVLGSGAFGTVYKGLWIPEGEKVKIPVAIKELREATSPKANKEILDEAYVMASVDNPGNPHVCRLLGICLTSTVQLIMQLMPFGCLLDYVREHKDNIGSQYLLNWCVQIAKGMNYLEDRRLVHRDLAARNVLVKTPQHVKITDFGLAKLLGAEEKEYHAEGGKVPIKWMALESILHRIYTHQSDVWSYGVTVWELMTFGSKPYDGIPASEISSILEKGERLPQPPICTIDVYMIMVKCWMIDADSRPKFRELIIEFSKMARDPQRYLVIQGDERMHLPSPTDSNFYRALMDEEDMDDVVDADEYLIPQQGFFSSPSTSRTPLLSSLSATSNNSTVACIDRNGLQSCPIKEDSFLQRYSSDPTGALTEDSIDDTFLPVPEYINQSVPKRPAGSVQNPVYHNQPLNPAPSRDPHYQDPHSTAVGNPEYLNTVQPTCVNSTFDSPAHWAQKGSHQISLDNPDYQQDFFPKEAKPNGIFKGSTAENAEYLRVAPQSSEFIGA

Take `CN(C)C/C=C/C(=O)N1CCn2nc(-c3ccccc3F)c(-c3ccncc3)c2C1` [Example 153, (2E)-4-(dimethylamino)-1-[2-(2-fluorophenyl)-3-(pyridin-4-yl)-6,7-dihydropyrazolo[1,5-a]pyrazin-5(4H)-yl]but-2-en-1-one]: the half-maximal inhibitory concentration (IC50) (usually the point on the concentration scale where inhibition reaches its midpoint) in experiment [1] was 9.91 nM; in experiment [2] (Mus musculus, BaF3, 48 h), 557 nM; in experiment [3], 2.29 nM.

With `C=CC(=O)N1CCn2nc(-c3ccc4ccccc4c3F)c(-c3ccncc3)c2C1` [Example 111, 1-[2-(1-fluoronaphthalen-2-yl)-3-(pyridin-4-yl)-6,7-dihydropyrazolo[1,5-a]pyrazin-5(4H)-yl]prop-2-en-1-one], the IC50 in experiment [1] amounted to 0.259 nM; in experiment [2] (Mus musculus, BaF3, 48 h), 27.5 nM; in experiment [3], 0.13 nM.

As to `Cc1c[nH]c2nccc(-c3c(-c4ccc(Cl)cc4F)nn4c3CN(C(=O)/C=C/CN(C)C)CC4)c12` [Example 57, (2E)-1-[2-(4-chloro-2-fluorophenyl)-3-(3-methyl-1H-pyrrolo[2,3-b]pyridin-4-yl)-6,7-dihydropyrazolo[1,5-a]pyrazin-5(4H)-yl]-4-(dimethylamino)but-2-en-1-one], the IC50 in experiment [1] came to 256 nM; in experiment [2] (Mus musculus, BaF3, 48 h), 85.7 nM; in experiment [3], 165 nM.

Consider `C=CC(=O)N1CCn2nc(Nc3ccc(Cl)cc3F)c(-c3ccnc4[nH]cc(C)c34)c2C1` [Example 92, 1-[2-(4-chloro-2-fluoroanilino)-3-(3-methyl-1H-pyrrolo[2,3-b]pyridin-4-yl)-6,7-dihydropyrazolo[1,5-a]pyrazin-5(4H)-yl]prop-2-en-1-one], for which the concentration for half-maximal inhibition (IC50) in experiment [1] is 53.6 nM; in experiment [2] (Mus musculus, BaF3, 48 h), 125 nM; in experiment [3], 24.6 nM.

Take `Cc1cccc(-c2nn3c(c2-c2ccncc2)CN(C(=O)/C=C/CN(C)C)CC3)c1` [Example 157, (2E)-4-(dimethylamino)-1-[2-(3-methylphenyl)-3-(pyridin-4-yl)-6,7-dihydropyrazolo[1,5-a]pyrazin-5(4H)-yl]but-2-en-1-one]: the IC50 was 1.77 nM in experiment [1]; 117 nM in experiment [2] (Mus musculus, BaF3, 48 h); 1 nM in experiment [3].

Regarding `C=CC(=O)N1CCn2nc(-c3ccc(F)cc3)c(-c3ccnc4[nH]cc(C)c34)c2C1C` (single isomer, unassigned; isomer 1) [Example 262, 1-(2-(4-fluorophenyl)-4-methyl-3-(3-methyl-1H-pyrrolo[2,3-b]pyridin-4-yl)-6,7-dihydropyrazolo[1,5-a]pyrazin-5(4H)-yl) prop-2-en-1-one (isomer 1)], the IC50 in experiment [1] was determined as 396 nM; in experiment [2] (48 h) it was 452 nM; in experiment [3] it was 1620 nM.

With `C=CC(=O)N1CCn2nc(-c3ccc(Cl)cc3Cl)c(-c3ccncc3)c2C1` [Example 115, 1-[2-(2,4-dichlorophenyl)-3-(pyridin-4-yl)-6,7-dihydropyrazolo[1,5-a]pyrazin-5(4H)-yl]prop-2-en-1-one], the half-maximal inhibitory concentration (IC50) in experiment [1] was 0.949 nM; in experiment [2] (Mus musculus, BaF3, 48 h), 42.2 nM; in experiment [3], 0.22 nM.

As to `Cc1c[nH]c2nccc(-c3c(-c4ccc(F)cc4)nn4c3CN(C(=O)/C=C/CN(C)C)[C@H](C)C4)c12` [Example 269, (2E)-4-(dimethylamino)-1-[(6R)-2-(4-fluorophenyl)-6-methyl-3-(3-methyl-1H-pyrrolo[2,3-b]pyridin-4-yl)-6,7-dihydropyrazolo[1,5-a]pyrazin-5(4H)-yl]but-2-en-1-one], the IC50 in experiment [1] was 38.2 nM; in experiment [2] (Mus musculus, BaF3, 48 h), 128 nM; in experiment [3], 138 nM.

With `O=C(C#CC1CCCN1)N1CCn2nc(-c3ccc(F)cc3)c(-c3ccncc3)c2C1` (racemic) [Example 88, 1-[2-(4-fluorophenyl)-3-(pyridin-4-yl)-6,7-dihydropyrazolo[1,5-a]pyrazin-5(4H)-yl]-3-[(2RS)-pyrrolidin-2-yl]prop-2-yn-1-one], the IC50 came out at 15.8 nM in experiment [1]; 3790 nM in experiment [2] (Mus musculus, BaF3, 48 h); 9.27 nM in experiment [3].
